Measurements reported in ChEMBL document CHEMBL6087419, “Structural insights into tryptamine psychedelics: The role of hydroxyl indole ring site in 5-HT2A receptor activation and psychedelic-like activity” (Eur J Med Chem, 2025).
Active and inactive are the calls of the source. The rule behind the calls is not given here.

Columns and labels:
Mus musculus [1] = experiment: Psychedelic like activity in male BALB/c mouse assessed as induction of head-twitch responses at 1 mg/kg, ip measured after 30 mins by video recording analysis; assay type: functional, organism-based
Mus musculus [2] = experiment: Psychedelic like activity in male BALB/c mouse assessed as induction of head-twitch responses at 3 to 10 mg/kg, ip measured after 30 mins by video recording analysis; assay type: functional, organism-based; settings: dose 3-10 mg/kg
Mus musculus [3] = experiment: Psychedelic like activity in male BALB/c mouse assessed as induction of head-twitch responses administered intraperitoneally and measured after 30 mins by video recording analysis; assay type: functional; settings: 0.5 h, route ip

## CN(C)CCc1c[nH]c2ccc(O)cc12
Mus musculus [1]
  Activity: Active

## CN(C)CCc1c[nH]c2cc(O)ccc12
Mus musculus [1]
  Activity: inactive

## CN(C)CCc1c[nH]c2c(O)cccc12
Mus musculus [1]
  Activity: inactive

## CN(C)CCc1c[nH]c2cccc(O)c12 [PSILOCIN]
Mus musculus [2]
  Activity: inactive
Mus musculus [1]
  Activity: Active
Mus musculus [3]
  ED50: 0.86 mg/kg
